Source: ChEMBL document CHEMBL4507274 (2021)

Experiments:
[1] = tested on: Tyrosine-protein kinase ABL1 (Homo sapiens), P00519 [H396P]; conditions: Compound concentration 100.0 nM
[2] = biological target: Activin receptor type-1 (Homo sapiens) (UniProt Q04771); conditions: Compound concentration 100.0 nM
[3] = biological target: Atypical kinase COQ8A, mitochondrial (Homo sapiens) (UniProt Q8NI60); conditions: Compound concentration 100.0 nM
[4] = biological target: RAC-beta serine/threonine-protein kinase (Homo sapiens) (UniProt P31751); conditions: Compound concentration 100.0 nM
[5] = biological target: BMP-2-inducible protein kinase (Homo sapiens) (UniProt Q9NSY1); conditions: Compound concentration 100.0 nM
BMP-2-inducible protein kinase (Homo sapiens), sequence (Q9NSY1 whole entry, looked up): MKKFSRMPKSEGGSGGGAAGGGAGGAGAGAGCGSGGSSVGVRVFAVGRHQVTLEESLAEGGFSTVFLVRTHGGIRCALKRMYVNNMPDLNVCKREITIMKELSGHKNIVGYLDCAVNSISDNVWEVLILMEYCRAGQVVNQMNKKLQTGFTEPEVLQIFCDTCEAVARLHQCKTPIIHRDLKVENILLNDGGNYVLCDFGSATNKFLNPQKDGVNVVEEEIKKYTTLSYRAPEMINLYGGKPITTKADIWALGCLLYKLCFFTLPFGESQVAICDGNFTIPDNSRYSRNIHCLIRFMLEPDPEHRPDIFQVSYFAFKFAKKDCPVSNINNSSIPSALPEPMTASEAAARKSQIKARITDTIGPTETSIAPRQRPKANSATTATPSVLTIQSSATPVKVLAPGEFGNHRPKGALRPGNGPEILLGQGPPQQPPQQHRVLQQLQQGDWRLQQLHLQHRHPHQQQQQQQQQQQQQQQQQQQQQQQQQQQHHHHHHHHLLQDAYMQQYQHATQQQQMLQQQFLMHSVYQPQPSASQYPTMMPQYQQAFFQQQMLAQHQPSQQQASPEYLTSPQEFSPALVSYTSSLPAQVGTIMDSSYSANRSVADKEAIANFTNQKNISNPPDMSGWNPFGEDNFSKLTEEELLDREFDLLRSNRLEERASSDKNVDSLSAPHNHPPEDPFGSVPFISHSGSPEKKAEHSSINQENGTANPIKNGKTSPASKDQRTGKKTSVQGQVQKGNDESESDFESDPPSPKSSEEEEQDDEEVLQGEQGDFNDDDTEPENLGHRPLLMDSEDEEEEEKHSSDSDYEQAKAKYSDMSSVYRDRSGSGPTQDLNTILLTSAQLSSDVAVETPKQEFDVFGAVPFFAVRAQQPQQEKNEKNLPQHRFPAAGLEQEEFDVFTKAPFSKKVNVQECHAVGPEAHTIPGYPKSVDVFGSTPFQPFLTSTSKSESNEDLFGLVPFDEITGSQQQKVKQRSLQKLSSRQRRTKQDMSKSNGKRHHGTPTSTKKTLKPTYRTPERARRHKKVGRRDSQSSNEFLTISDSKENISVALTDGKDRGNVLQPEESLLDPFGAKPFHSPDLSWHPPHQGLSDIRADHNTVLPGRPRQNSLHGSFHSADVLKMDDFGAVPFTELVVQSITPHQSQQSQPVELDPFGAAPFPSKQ

[6] = biological target: T1, Calcium/calmodulin-dependent protein kinase type IV (Homo sapiens) (UniProt Q16566); conditions: Compound concentration 100.0 nM
T1 sequence (whole entry): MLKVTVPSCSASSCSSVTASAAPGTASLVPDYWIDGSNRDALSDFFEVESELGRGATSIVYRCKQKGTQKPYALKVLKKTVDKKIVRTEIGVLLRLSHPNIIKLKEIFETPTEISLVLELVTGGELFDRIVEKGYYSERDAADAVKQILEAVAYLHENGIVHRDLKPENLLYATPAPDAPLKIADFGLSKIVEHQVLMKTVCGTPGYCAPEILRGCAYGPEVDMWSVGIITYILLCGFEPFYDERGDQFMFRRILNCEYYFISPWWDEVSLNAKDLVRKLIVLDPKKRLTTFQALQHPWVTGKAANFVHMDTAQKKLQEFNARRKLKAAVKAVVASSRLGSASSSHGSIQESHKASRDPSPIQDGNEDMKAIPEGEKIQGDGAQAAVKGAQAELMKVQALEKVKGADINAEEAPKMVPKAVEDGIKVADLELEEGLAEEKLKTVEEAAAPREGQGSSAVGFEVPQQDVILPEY

[7] = biological target: Death-associated protein kinase 1 (Homo sapiens) (UniProt P53355); conditions: Compound concentration 100.0 nM
Death-associated protein kinase 1 (Homo sapiens), sequence (P53355 whole entry, looked up): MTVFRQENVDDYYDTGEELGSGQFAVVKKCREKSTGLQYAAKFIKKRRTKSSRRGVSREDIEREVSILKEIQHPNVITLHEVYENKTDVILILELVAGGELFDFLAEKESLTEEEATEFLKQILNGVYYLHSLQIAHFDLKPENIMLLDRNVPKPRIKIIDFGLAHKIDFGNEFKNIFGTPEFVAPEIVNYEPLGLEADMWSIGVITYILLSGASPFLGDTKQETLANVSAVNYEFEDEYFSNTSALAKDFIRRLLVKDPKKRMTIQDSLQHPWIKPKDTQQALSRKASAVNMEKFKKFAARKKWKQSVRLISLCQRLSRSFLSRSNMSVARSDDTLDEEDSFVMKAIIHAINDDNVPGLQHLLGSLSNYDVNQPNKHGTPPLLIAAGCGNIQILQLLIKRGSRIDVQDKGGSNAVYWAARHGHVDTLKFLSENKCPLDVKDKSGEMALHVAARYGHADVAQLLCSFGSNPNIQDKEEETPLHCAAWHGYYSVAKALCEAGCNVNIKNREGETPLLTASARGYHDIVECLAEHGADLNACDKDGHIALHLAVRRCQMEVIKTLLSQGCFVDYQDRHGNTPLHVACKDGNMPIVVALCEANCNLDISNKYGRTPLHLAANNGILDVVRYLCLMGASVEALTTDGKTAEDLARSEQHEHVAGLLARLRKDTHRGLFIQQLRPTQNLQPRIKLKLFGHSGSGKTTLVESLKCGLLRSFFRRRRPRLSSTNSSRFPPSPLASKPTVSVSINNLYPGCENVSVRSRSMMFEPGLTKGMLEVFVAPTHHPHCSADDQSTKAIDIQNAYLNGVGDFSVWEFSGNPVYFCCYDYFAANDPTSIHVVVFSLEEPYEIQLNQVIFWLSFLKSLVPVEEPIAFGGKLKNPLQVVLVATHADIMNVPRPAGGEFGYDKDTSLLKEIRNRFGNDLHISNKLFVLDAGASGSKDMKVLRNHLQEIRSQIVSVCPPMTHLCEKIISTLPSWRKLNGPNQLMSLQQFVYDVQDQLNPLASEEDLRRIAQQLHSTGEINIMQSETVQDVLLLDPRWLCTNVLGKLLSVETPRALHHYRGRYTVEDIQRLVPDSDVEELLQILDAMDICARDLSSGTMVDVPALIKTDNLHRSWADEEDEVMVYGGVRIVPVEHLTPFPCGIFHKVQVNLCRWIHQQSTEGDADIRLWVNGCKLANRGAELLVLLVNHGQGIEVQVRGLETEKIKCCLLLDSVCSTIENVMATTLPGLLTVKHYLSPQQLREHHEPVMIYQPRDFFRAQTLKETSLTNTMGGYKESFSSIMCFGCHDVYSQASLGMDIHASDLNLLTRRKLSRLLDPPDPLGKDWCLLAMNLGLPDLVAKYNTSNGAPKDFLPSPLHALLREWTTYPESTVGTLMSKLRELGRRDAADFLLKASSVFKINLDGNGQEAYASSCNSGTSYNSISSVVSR

[8] = biological target: Serine/threonine-protein kinase DCLK1 (Homo sapiens) (UniProt O15075); conditions: Compound concentration 100.0 nM
[9] = biological target: Dual specificity tyrosine-phosphorylation-regulated kinase 1B (Homo sapiens) (UniProt Q9Y463); conditions: Compound concentration 100.0 nM
[10] = biological target: Ephrin type-A receptor 1 (Homo sapiens) (UniProt P21709); conditions: Compound concentration 100.0 nM
[11] = tested on: Fibroblast growth factor receptor 3 (Homo sapiens), P22607 [G697C]; conditions: Compound concentration 100.0 nM
[12] = tested on: Receptor-type tyrosine-protein kinase FLT3 (Homo sapiens), P36888 [D835V]; conditions: Compound concentration 100.0 nM
[13] = tested on: Receptor-type tyrosine-protein kinase FLT3 (Homo sapiens), P36888 [UNDEFINED MUTATION]; conditions: Compound concentration 100.0 nM
[14] = biological target: Interleukin-1 receptor-associated kinase 3 (Homo sapiens) (UniProt Q9Y616); conditions: Compound concentration 100.0 nM
[15] = biological target: MAP kinase-activated protein kinase 2 (Homo sapiens) (UniProt P49137); conditions: Compound concentration 100.0 nM
[16] = biological target: Dual specificity mitogen-activated protein kinase kinase 3 (Homo sapiens) (UniProt P46734); conditions: Compound concentration 100.0 nM
[17] = biological target: Maternal embryonic leucine zipper kinase (Homo sapiens) (UniProt Q14680); conditions: Compound concentration 100.0 nM
[18] = biological target: Myosin-IIIa (Homo sapiens) (UniProt Q8NEV4); conditions: Compound concentration 100.0 nM
[19] = biological target: Serine/threonine-protein kinase 38-like (Homo sapiens) (UniProt Q9Y2H1); conditions: Compound concentration 100.0 nM
[20] = biological target: Calcium-dependent protein kinase 1 (Plasmodium falciparum) (UniProt P62344); conditions: Compound concentration 100.0 nM
Calcium-dependent protein kinase 1 (Plasmodium falciparum), sequence (P62344 2-524 limits assumed): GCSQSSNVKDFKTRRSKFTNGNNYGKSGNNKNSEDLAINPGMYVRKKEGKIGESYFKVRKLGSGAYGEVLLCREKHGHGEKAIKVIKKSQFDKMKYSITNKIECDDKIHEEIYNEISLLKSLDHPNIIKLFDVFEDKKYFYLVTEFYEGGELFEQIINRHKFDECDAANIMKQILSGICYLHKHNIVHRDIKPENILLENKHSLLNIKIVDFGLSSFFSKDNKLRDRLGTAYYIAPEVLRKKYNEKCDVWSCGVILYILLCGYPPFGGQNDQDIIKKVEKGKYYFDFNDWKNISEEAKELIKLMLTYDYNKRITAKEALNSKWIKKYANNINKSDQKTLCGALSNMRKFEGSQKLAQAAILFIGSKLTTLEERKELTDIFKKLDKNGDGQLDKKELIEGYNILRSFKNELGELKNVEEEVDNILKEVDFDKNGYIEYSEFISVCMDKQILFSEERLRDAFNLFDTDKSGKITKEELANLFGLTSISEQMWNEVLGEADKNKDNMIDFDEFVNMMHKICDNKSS

[21] = biological target: Cyclin-dependent kinase 14 (Homo sapiens) (UniProt O94921); conditions: Compound concentration 100.0 nM
Cyclin-dependent kinase 14 (Homo sapiens), sequence (O94921 whole entry, the tested form may be a part): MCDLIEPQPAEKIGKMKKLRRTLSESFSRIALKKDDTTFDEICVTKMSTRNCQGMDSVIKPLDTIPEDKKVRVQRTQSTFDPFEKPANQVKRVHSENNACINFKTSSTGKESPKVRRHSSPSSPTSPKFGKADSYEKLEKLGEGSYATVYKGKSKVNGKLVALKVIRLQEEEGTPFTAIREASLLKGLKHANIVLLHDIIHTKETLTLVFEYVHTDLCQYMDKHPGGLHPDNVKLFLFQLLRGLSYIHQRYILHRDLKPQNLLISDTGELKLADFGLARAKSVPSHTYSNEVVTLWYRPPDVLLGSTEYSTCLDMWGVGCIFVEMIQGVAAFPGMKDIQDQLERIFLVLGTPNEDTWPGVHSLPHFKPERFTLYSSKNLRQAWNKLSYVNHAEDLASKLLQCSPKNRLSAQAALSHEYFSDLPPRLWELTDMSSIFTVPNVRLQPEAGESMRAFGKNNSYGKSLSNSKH

[22] = biological target: Phosphatidylinositol 4-phosphate 3-kinase C2 domain-containing subunit beta (Homo sapiens) (UniProt O00750); conditions: Compound concentration 100.0 nM
[23] = biological target: Phosphatidylinositol 4-phosphate 5-kinase type-1 alpha (Homo sapiens) (UniProt Q99755); conditions: Compound concentration 100.0 nM
[24] = tested on: Proto-oncogene tyrosine-protein kinase receptor Ret (Homo sapiens), P07949 [V804L]; conditions: Compound concentration 100.0 nM
[25] = biological target: Ribosomal protein S6 kinase alpha-3 (Homo sapiens) (UniProt P51812); conditions: Compound concentration 100.0 nM
[26] = biological target: Ribosomal protein S6 kinase alpha-2 (Homo sapiens) (UniProt Q15349); conditions: Compound concentration 100.0 nM
Ribosomal protein S6 kinase alpha-2 (Homo sapiens), sequence (Q15349 whole entry): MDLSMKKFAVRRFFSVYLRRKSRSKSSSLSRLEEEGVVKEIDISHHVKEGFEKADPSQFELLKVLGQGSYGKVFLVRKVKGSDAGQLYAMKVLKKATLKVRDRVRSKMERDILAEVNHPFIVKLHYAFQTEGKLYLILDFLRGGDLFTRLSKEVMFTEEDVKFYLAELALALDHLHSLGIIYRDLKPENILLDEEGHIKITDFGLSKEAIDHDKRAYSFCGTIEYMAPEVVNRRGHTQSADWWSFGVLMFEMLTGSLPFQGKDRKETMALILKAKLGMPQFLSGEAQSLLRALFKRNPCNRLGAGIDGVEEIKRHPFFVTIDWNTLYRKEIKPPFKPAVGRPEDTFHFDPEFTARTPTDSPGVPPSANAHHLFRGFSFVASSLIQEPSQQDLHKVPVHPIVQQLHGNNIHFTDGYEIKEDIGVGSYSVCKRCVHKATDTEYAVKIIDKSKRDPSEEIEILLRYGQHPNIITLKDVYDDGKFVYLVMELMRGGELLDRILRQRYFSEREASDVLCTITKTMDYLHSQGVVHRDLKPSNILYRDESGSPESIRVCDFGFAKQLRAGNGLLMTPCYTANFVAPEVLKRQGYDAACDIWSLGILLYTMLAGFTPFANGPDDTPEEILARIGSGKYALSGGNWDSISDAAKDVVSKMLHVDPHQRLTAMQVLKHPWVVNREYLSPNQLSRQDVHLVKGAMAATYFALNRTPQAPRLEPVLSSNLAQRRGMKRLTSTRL

[27] = biological target: Tyrosine-protein kinase SYK (Homo sapiens) (UniProt P43405); conditions: Compound concentration 100.0 nM
[28] = biological target: Serine/threonine-protein kinase TAO1 (Homo sapiens) (UniProt Q7L7X3); conditions: Compound concentration 100.0 nM
[29] = biological target: Serine/threonine-protein kinase WNK2 (Homo sapiens) (UniProt Q9Y3S1); conditions: Compound concentration 100.0 nM
[30] = biological target: Histamine H4 receptor (Homo sapiens) (UniProt Q9H3N8); conditions: Compound concentration 10.0 uM
[31] = biological target: Beta-1 adrenergic receptor (Homo sapiens) (UniProt P08588); conditions: Compound concentration 10.0 uM

Atypical kinase COQ8A, mitochondrial (Homo sapiens), sequence (Q8NI60 163-647 limits assumed): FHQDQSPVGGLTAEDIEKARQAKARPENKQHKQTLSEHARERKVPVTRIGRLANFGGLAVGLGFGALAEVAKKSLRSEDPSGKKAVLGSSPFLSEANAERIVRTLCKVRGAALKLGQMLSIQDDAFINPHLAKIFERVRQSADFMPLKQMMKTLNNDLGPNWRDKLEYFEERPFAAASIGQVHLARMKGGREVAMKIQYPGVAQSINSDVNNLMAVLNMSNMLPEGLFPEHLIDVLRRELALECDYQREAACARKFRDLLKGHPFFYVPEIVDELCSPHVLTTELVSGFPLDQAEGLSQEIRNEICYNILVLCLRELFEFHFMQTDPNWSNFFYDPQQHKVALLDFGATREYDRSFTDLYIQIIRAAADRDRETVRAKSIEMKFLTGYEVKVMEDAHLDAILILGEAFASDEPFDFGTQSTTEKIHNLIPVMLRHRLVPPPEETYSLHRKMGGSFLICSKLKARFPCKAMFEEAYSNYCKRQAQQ

Cc1c[nH]c2nccc(Oc3c(F)cc(Nc4cc(Cl)nc(N)n4)cc3F)c12 [BAY-549]
inactive: residual activity [1] 95% | residual activity [2] 94% | residual activity [3] 100% | residual activity [4] 98% | residual activity [5] 100% | residual activity [6] 100% | residual activity [7] 98% | residual activity [8] 65% | residual activity [9] 100% | residual activity [10] 100% | residual activity [11] 100% | residual activity [12] 90% | residual activity [13] 87% | residual activity [14] 85% | residual activity [15] 100% | residual activity [16] 100% | residual activity [17] 57% | residual activity [18] 95% | residual activity [19] 87% | residual activity [20] 91% | residual activity [21] 100% | residual activity [22] 88% | residual activity [23] 68% | residual activity [24] 100% | residual activity [25] 79% | residual activity [26] 100% | residual activity [27] 100% | residual activity [28] 84% | residual activity [29] 96% | inhibition [30] -8.74% | inhibition [31] 6.86%

Cn1cc(Cl)c2c(Oc3c(F)cc(Nc4cc(Cl)nc(N)n4)cc3F)ccnc21 [BAY-4900]
inactive: residual activity [1] 95% | residual activity [2] 85% | residual activity [3] 100% | residual activity [4] 100% | residual activity [5] 100% | residual activity [6] 96% | residual activity [7] 100% | residual activity [8] 85% | residual activity [9] 82% | residual activity [10] 100% | residual activity [11] 100% | residual activity [12] 91% | residual activity [13] 79% | residual activity [14] 97% | residual activity [15] 100% | residual activity [16] 94% | residual activity [17] 89% | residual activity [18] 100% | residual activity [19] 100% | residual activity [20] 88% | residual activity [21] 100% | residual activity [22] 83% | residual activity [23] 70% | residual activity [24] 91% | residual activity [25] 71% | residual activity [26] 100% | residual activity [27] 100% | residual activity [28] 97% | residual activity [29] 88% | inhibition [30] -9.04% | inhibition [31] -2.51%
